Data reported in patent US20080220416A1, “Compositions for Inhibiting Cell Growth and Inducing Apoptosis in Cancer Cells and Methods of Use Thereof” (THE BOARD OF TRUSTEES OF THE UNIVERSITY OF ILLINOI, priority 2004, published 2008).
Square brackets hold non-standard residues; d marks the D form. Peptide text beside a SMILES is read from it. * marks the point of attachment. Nle = CCCC[C@H](N)C(=O)O; Cbz = O=C(OCc1ccccc1)*

How the values were obtained:
RJ002L melanoma cells [1] = assay: Bortezomib in RJ002L melanoma cells: sub-G0 DNA content by FACS and kinetic analysis; format: cell-based, human
Description: To assess the effect of proteasome inhibitors on the cell lines, the cells were grown in suitable culture media as described above. Highly proliferating cells (i.e., cells that had reached approximately 30% confluency) were exposed to the inhibitors as described below. The culture media was replenished with media containing proteasome inhibitors at various concentrations and the cells were incubated for 24 hours prior to harvesting the cells for further analysis.
Following treatment with the proteasome inhibitors, the melanoma and melanocyte cell cultures were assayed for apoptotic cells using the APO TARGET Annexin V FITC staining kit (Biosource, Camarillo, Calif.) according to the manufacturer's instructions followed by flow cytometric analysis using FACScaliber (Becton Dickinson, Palo Alto, Calif.) as described in Qin, J. et al., 2001, Nat Med 7: 385-386. In some cases, cell cycle and apoptosis analysis was measured using propidium iodide staining and flow cytometry as described. Cells with DNA content less than the G0 amount of untreated cells were considered apoptotic. For cell analysis, DNA histograms were analyzed using MultiCycle for Windows (Phoenix Flow Systems, San Diego, Calif.) as described in Denning, M. F. et al., 1998, J Biol Chem 273: 29995-30002.
The ability of bortezomib to induce apoptosis in RJ002L cells was assayed by kinetic analysis. RJ002L cells were incubated with 1.0 μM bortezomib for 24 hours. At various time points during the 24 hours, the cells were assayed for apoptosis using APO TARGET Annexin V-FITC staining kits (Biosource, Camerillo, Calif.) according to manufacturer's instructions. The relative percentage of cells undergoing apoptosis was quantified by flow cytometric analysis using FACSCaliber (Becton Dickinson, Palo Alto, Calif.) as described in Qin J et al., 2004, Mol Cancer Ther 3:895-902.

C8161 melanoma cells = assay: Proliferating versus serum-deprived C8161 melanoma cells, NOXA and apoptosis; format: cell-based, human; conditions: for NOXA induction: proliferating (10% FCS) or serum-deprived (no serum) C8161
Description: C8161 melanoma cells were induced into a relatively quiescent state by serum withdrawal. Proliferation assays were conducted in the presence or absence of 10% fetal calf serum (FCS) by manual counting of melanoma cells in triplicate wells on days 0, 1, 2 and 3. […] By phase contrast microscopy, the withdrawal of FCS arrested the cells (data not shown). This growth arrest was confirmed by Western blots of the cells that were maintained as either rapidly proliferating cells in the presence of 10% FCS or were growth arrested by serum withdrawal and washing with PBS for either 1 or 2 days. Whole cell extracts were prepared and Western blot analysis was performed as described above in Example 8 using antibodies to NOXA, p21 (SC-817, Santa Cruz Biotechnology, Santa Cruz, Calif.) and β-actin as described here and above.
Growth arrest induced by serum withdrawal was confirmed by induction of p21. […] Thus, not only can proteasome inhibitors selectively induce NOXA and kill melanoma cells and not kill melanocytes independent of p53, but melanoma cells are susceptible to killing even when maintained in a relatively quiescent state in vitro.

RJ002L melanoma cells [2] = assay: Dosing study versus chemotherapeutic agents, killing of RJ002L melanoma cells; format: cell-based, human
Description: An initial dosing study comparing z-Leu-Leu-Nle-CHO against three different chemotherapeutic agents (i.e., adriamycin, etoposide, and cisplatin) was performed to evaluate the relative effectiveness of z-Leu-Leu-Nle-CHO in killing melanoma cells. In agreement with a previous report by Soengas, M. S. et al., 2001, Nature 409.207-211, SK-MeI-28 cells, carrying a mutated p53, were relatively resistant to killing by adriamycin, as well as to killing by other chemotherapeutic agents. For SK-MeI-28 melanoma cells, the maximal apoptotic response for adriamycin, etoposide, cisplatin, and z-Leu-Leu-Nle-CHO was 12.0%, 2.6%, 4.0%, and 29.4%, respectively. For RJ002L melanoma cells, the maximal apoptotic response for adriamycin, etoposide, cisplatin, and z-Leu-Leu-Nle-CHO was 23.9%, 12.7%, 3.4%, and 45.7%, respectively.

[3] = test system: Human Mammary Epithelial Cells (HMEC); assay: Proliferation of normal breast cells (HMEC) after siRNA; format: cell-based; conditions: siRNA transfection
Description: An invasive, estrogen-independent breast cancer cell line that spontaneously expresses high levels of Notch-1 and -4, MDA-MB231, and normal human breast cells were used to investigate whether inhibition of Notch activation or expression affects the biological behavior of breast cancer cells. […] Sequence specificity was determined by BLAST searches which determined the uniqueness of the sequences. […] Transfected cells were identified by Streptavidin-horseradish peroxidase staining (Vectastain) and counted. […]
Cytotoxicity and growth of transfected cells were estimated by a standard assay used for cancer drug screening, through the total amount of TCA-precipitated cell proteins after drug treatment (Likhitwitayawuid, K et al., 1993, J Nat Prod 56:30-38): 200 μl of cell suspension (10^5 cells/ml) were added to each well in a 96-well plate. […] Plates were shaken for 5-10 minutes and OD at 490 nm (OD490) was recorded via ELISA reader. […] After removal of the non-invading cells from the interior of the inserts, stained invading cells were lysed in 10% acetic acid and OD595 was determined.

CC(C)C[C@H](NC(=O)[C@H](Cc1ccccc1)NC(=O)c1cnccn1)B(O)O [bortezomib, N-(2-pyrazine)carbonyl-L-phenylalanine-L-leucine boronic acid]
cells with sub-G0 DNA content by FACS analysis (RJ002L melanoma cells [1]; 0.01 μM, 24 hours): 2% | apoptotic cells (RJ002L melanoma cells [1]; 0.1 μM, 24 hours): 20% | apoptotic cells (RJ002L melanoma cells [1]; 1 μM or 10 μM, 24 hours): 29-30% | kinetic analysis of apoptosis (RJ002L melanoma cells [1]; 1.0 μM, up to 24 hours): prominent apoptosis was detected at 18- and 24-hr time points | increase in apoptotic cells, 0.1 μM versus 0.01 μM (RJ002L melanoma cells [1]; 24 hours): 10 fold | NOXA induction (C8161 melanoma cells): trigger prominent NOXA induction | cell death by apoptosis in serum-deprived cells (C8161 melanoma cells; serum-deprived versus proliferating C8161): comparable to that seen in bortezomib-treated proliferating melanoma cells

CCCC[C@@H](C=O)NC(=O)[C@H](CC(C)C)NC(=O)[C@H](CC(C)C)NC(=O)OCc1ccccc1 [z-Leu-Leu-Nle-CHO, N-benzyloxycarbonyl-leucyl-leucyl-norleucinal] (Cbz-Leu-Leu-[Nle]-aldehyde)
maximal apoptotic response (RJ002L melanoma cells [2]): 45.7%

CC(C)C[C@@H](C=O)NC(=O)[C@H](CC(C)C)NC(=O)[C@H](CC(C)C)NC(=O)OCc1ccccc1 [MG-132, benzoxycarbonyl-Leucyl-Leucyl-Leucyl-aldehyde] (Cbz-Leu-Leu-Leu-aldehyde)
NOXA induction (C8161 melanoma cells): trigger prominent NOXA induction

5′-AAGTGTCTGAGGCCAGCAAGA-3′ [Notch-1 siRNA]
proliferation [3]: inhibits proliferation of normal breast cells
